Common to all, as to assay: NCI tumour cell line growth inhibition, 48 h
For assay [1], the system named is LOX IMVI melanoma.
Assay [2] deals with MDA-MB-435.
Assay [3] concerns UACC-257 melanoma.
Assay [4] has as its system SW-620 colon.
The subject of assay [5] is HS 578T breast.
Assay [6] has as its system MOLT-4 leukemia.
Assay [7] relates to HL-60(TB) leukemia.
The test system of assay [8] is SF-295 CNS.
The subject of assay [9] is NCI-H460 lung.
The subject of assay [10] is OVCAR-4 ovarian.

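Exposure lasted 48 hours, with cells grown in 96-well plates and compounds tested at five concentrations. Abbreviation: GI50, concentration required for 50% inhibition of growth. TGI denotes the concentration required for complete inhibition of growth.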

As for `CN(Cc1cccc(Cl)c1)c1ccc(CO)c(Cl)c1`, the GI50 in assay [1] is 14.2 µM; in [2] it was 24.3 µM; in assay [3] it was 0.569 µM; in [4], 5.93 µM; in assay [5] it was 19.7 µM; in assay [6] it was 20 µM. Besides, the GI50 is 13.9 µM in assay [7], 3.7 µM in assay [8], 1.44 µM in assay [9] and 2.33 µM in [10]. The TGI is 27.5 µM in assay [1]; 85.5 µM in [2]; 2.15 µM in assay [3]; more than 42.9 µM in assay [4]; more than 64.5 µM in [5]; 56.6 µM in assay [6]. In addition, the TGI came out at 45 µM in assay [7], 32.1 µM in assay [8], 15.2 µM in assay [9] and 16.5 µM in assay [10].

In the case of `Nc1c2c(c(O)c3c1=C(CO)C=N3)=NCCS2=O` (stereo not given), the GI50 in assay [1] is 1.58 µM; in assay [2] it was 1.86 µM; in assay [3], 1.62 µM; in assay [4] it was 2.1 µM; in [5] it was 2.78 µM; in [6], 1.24 µM. The GI50 was 1.94 µM in assay [7], 2.12 µM in assay [8], 0.649 µM in assay [9] and 0.312 µM in assay [10]. Further, the TGI in assay [1] is 4.03 µM; in assay [2], 3.41 µM; in assay [3], 3.14 µM; in assay [4] it was 4.22 µM; in assay [5], 7.9 µM; in [6], 4.22 µM. In addition, the TGI in [7] amounted to 4.5 µM; in assay [8], 4.12 µM; in assay [9], 2.31 µM; in assay [10], 1.22 µM.

With `COc1ccc(-n2cc(-c3ccc(F)cc3)[nH]c2=O)cc1OC`, the GI50 is more than 100 µM in assay [1]; more than 100 µM in assay [2]; more than 100 µM in assay [3]; more than 100 µM in [4]; 98.9 µM in assay [5]; more than 100 µM in assay [6]. The GI50 in assay [7], in assay [8], in assay [9] and in assay [10] was more than 100 µM in each case. Also, the TGI in [1], in assay [2], in assay [3], in assay [4], in assay [5] and in [6] was more than 100 µM throughout. For the same molecule, the TGI in assay [7], in assay [8], in assay [9] and in [10] was more than 100 µM in each case.

With `Clc1ccc2c(NCCCNCc3ccc4c(c3)OCO4)ccnc2c1`, the GI50 was 1.91 µM in assay [1]; 1.68 µM in assay [2]; 1.91 µM in assay [3]; 2.96 µM in assay [4]; 2.99 µM in assay [5]; 2.68 µM in [6]. For the same molecule, the GI50 was 2.22 µM in [7], 2.34 µM in assay [8], 3.61 µM in [9] and 10.8 µM in [10]. The TGI in [1] turned out to be 4.41 µM; in [2], 3.29 µM; in [3] it was 3.44 µM; in [4], 11.1 µM; in assay [5], 11.1 µM; in [6], 10.2 µM. Also, the TGI in assay [7] is 4.79 µM; in assay [8] it was 7.11 µM; in [9] it was 12.1 µM; in assay [10], 24.8 µM.

`COc1cc2c(cc1OC)-c1c(c3ccc([N+](=O)[O-])cc3c(=O)n1CCCBr)C2=O`: the GI50 was 3.9 µM in [1]; 25.4 µM in [2]; 37.2 µM in [3]; 21.8 µM in [4]; more than 100 µM in assay [5]; 0.461 µM in [6]. Further, the GI50 is 1.31 µM in [7], 9.07 µM in [8], 0.573 µM in [9] and 34.1 µM in assay [10]. The TGI in assay [1] was 42.4 µM; in [2], more than 100 µM; in assay [3], more than 100 µM; in assay [4], more than 100 µM; in assay [5], more than 100 µM; in assay [6], more than 100 µM. The TGI is 10.2 µM in [7], more than 100 µM in assay [8], more than 100 µM in assay [9] and more than 100 µM in assay [10].

As for `NC1=C(O)/C(=N/NS(=O)(=O)c2ccccc2)C(c2cccc(Cl)c2)O1` (stereo not given), the TGI is 49.2 µM in [1]; more than 100 µM in [2]; more than 100 µM in assay [3]; 35.8 µM in [4]; 95.1 µM in assay [5]; 19.1 µM in assay [6]. For the same molecule, the TGI in assay [7] is 12.5 µM; in assay [8], more than 100 µM; in [9], more than 100 µM; in assay [10], more than 100 µM.

With `CC/C(=C(/c1ccc(Cl)cc1)c1ccc(OCCCN(C)C)cc1)c1ccc(OC)cc1`, the GI50 in assay [1] was 0.868 µM; in [2] it was 3.28 µM; in assay [3], 7.93 µM; in assay [4], 1.16 µM; in [5] it was 7.08 µM; in [6], 1.05 µM. Also, the GI50 in assay [7] was 1.15 µM; in [8] it was 0.918 µM; in assay [9], 1.1 µM; in [10] it was 5.25 µM. Further, the TGI was 1.64 µM in [1]; 9.69 µM in assay [2]; 15 µM in assay [3]; 2.96 µM in [4]; 16.9 µM in [5]; 2.53 µM in [6]. The TGI was 2.84 µM in assay [7], 1.87 µM in assay [8], 2.46 µM in [9] and 11.5 µM in [10].

Turning to `Cc1cnc2n(c1=O)Cc1ccccc1CO2`, the GI50 in assay [1] is 14.6 µM; in [2] it was 25.9 µM; in assay [3], 23 µM; in assay [4] it was 17.3 µM; in assay [5], 23.9 µM; in assay [6] it was 18.3 µM. Besides, the GI50 in assay [7] was 15.5 µM; in [8], 33.2 µM; in assay [9], 17.7 µM; in [10], 22 µM. For the same molecule, the TGI in [1] was 31.9 µM; in assay [2], more than 72.1 µM; in assay [3] it was 66 µM; in assay [4], 49 µM; in assay [5], more than 100 µM; in assay [6], 39.3 µM. Further, the TGI in assay [7] is 35.1 µM; in assay [8], more than 100 µM; in [9], 40.2 µM; in assay [10], 64.1 µM.
